# Article PMC10601436 (ACS Omega, 2023)
# pIC50: −log10 of the molar value. Peptide text beside a SMILES is read from it.
# Biological target: hDPP-IV (Homo sapiens, UniProt P27487)
# Experiment: DPP-IV inhibitory assay
# Type: biochemical
# Sequence of hDPP-IV (P27487 whole entry): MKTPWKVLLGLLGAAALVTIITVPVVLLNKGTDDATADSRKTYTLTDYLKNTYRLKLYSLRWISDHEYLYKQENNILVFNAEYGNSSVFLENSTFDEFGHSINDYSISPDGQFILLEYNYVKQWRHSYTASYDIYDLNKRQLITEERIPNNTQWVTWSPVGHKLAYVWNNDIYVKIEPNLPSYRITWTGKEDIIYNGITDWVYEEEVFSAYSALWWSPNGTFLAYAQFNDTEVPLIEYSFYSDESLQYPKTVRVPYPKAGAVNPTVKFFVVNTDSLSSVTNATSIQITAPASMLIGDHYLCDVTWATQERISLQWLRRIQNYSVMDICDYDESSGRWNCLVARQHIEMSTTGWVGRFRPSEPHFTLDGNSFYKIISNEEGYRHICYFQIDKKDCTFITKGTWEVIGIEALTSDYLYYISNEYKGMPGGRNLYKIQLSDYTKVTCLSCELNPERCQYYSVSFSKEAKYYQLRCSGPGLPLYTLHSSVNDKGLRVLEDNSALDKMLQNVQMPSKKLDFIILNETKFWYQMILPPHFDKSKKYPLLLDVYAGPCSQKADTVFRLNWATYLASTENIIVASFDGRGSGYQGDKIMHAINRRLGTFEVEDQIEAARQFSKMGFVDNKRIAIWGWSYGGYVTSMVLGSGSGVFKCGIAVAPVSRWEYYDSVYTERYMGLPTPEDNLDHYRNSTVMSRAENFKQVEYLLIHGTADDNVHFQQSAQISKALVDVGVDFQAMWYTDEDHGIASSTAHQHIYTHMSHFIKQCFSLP
row,Compound,pIC50
1,C[C@H](NC(=O)[C@H](CCCNC(=N)N)NC(=O)[C@@H](N)Cc1c[nH]c2ccccc12)C(=O)O [WRA] (H-Trp-Arg-Ala-OH),3.27
2,CC(C)[C@H](NC(=O)[C@@H](N)Cc1c[nH]c2ccccc12)C(=O)N[C@@H](CC(=O)O)C(=O)O [WVD] (H-Trp-Val-Asp-OH),3.46
3,CC(C)[C@H](NC(=O)[C@@H](NC(=O)[C@@H](N)Cc1c[nH]c2ccccc12)C(C)C)C(=O)O [WVV] (H-Trp-Val-Val-OH),3.56
4,N[C@@H](Cc1c[nH]c2ccccc12)C(=O)N1CCC[C@H]1C(=O)N[C@@H](Cc1ccccc1)C(=O)O [WPF] (H-Trp-Pro-Phe-OH),3.54
5,CC(C)[C@H](NC(=O)[C@@H](N)Cc1c[nH]c2ccccc12)C(=O)N[C@@H](Cc1ccc(O)cc1)C(=O)O [WVY] (H-Trp-Val-Tyr-OH),3.67
6,N=C(N)NCCC[C@H](NC(=O)[C@@H](N)Cc1c[nH]c2ccccc12)C(=O)N[C@@H](Cc1ccccc1)C(=O)O [WRF] (H-Trp-Arg-Phe-OH),3.59
7,N[C@@H](Cc1c[nH]c2ccccc12)C(=O)N1CCC[C@H]1C(=O)N[C@@H](Cc1c[nH]c2ccccc12)C(=O)O [WPW] (H-Trp-Pro-Trp-OH),3.74
8,C[C@H](NC(=O)[C@@H](N)Cc1c[nH]c2ccccc12)C(=O)NCC(=O)O [WAG] (H-Trp-Ala-Gly-OH),3.45
9,CC(C)[C@H](NC(=O)[C@@H](N)Cc1c[nH]c2ccccc12)C(=O)N[C@@H](CCC(=O)O)C(=O)O [WVE] (H-Trp-Val-Glu-OH),3.72
10,N[C@@H](Cc1c[nH]c2ccccc12)C(=O)N1CCC[C@H]1C(=O)N1CCC[C@H]1C(=O)O [WPP] (H-Trp-Pro-Pro-OH),3.52
11,N=C(N)NCCC[C@H](NC(=O)[C@@H](N)Cc1c[nH]c2ccccc12)C(=O)NCC(=O)O [WRG] (H-Trp-Arg-Gly-OH),3.57
12,N[C@@H](Cc1c[nH]c2ccccc12)C(=O)N1CCC[C@H]1C(=O)N[C@@H](CCC(=O)O)C(=O)O [WPE] (H-Trp-Pro-Glu-OH),3.45
13,CC(C)C[C@H](NC(=O)[C@@H](NC(=O)[C@@H](N)Cc1c[nH]c2ccccc12)C(C)C)C(=O)O [WVL] (H-Trp-Val-Leu-OH),3.40
14,CSCC[C@H](NC(=O)[C@@H](NC(=O)[C@@H](N)Cc1c[nH]c2ccccc12)C(C)C)C(=O)O [WVM] (H-Trp-Val-Met-OH),3.50
15,CC(C)[C@H](NC(=O)[C@H](CCCNC(=N)N)NC(=O)[C@@H](N)Cc1c[nH]c2ccccc12)C(=O)O [WRV] (H-Trp-Arg-Val-OH),3.27
16,CC(C)[C@H](NC(=O)[C@H](C)NC(=O)[C@@H](N)Cc1c[nH]c2ccccc12)C(=O)O [WAV] (H-Trp-Ala-Val-OH),3.60
17,N=C(N)NCCC[C@H](NC(=O)[C@@H](N)Cc1c[nH]c2ccccc12)C(=O)N1CCC[C@H]1C(=O)O [WRP] (H-Trp-Arg-Pro-OH),3.13
18,CC(C)[C@H](NC(=O)[C@@H](N)Cc1c[nH]c2ccccc12)C(=O)NCC(=O)O [WVG] (H-Trp-Val-Gly-OH),3.47
19,C[C@@H](O)[C@H](NC(=O)[C@@H]1CCCN1C(=O)[C@@H](N)Cc1c[nH]c2ccccc12)C(=O)O [WPT] (H-Trp-Pro-Thr-OH),3.36
20,CC(C)[C@H](NC(=O)[C@@H](N)Cc1c[nH]c2ccccc12)C(=O)N[C@@H](Cc1c[nH]c2ccccc12)C(=O)O [WVW] (H-Trp-Val-Trp-OH),3.62
21,C[C@H](NC(=O)[C@@H]1CCCN1C(=O)[C@@H](N)Cc1c[nH]c2ccccc12)C(=O)O [WPA] (H-Trp-Pro-Ala-OH),3.69

row,Compound,pIC50
1,CC(C)[C@H](NC(=O)[C@@H](N)Cc1c[nH]c2ccccc12)C(=O)N[C@@H](Cc1c[nH]cn1)C(=O)O [WVH] (H-Trp-Val-His-OH),3.59
2,C[C@H](NC(=O)[C@@H](N)Cc1c[nH]c2ccccc12)C(=O)N[C@@H](CS)C(=O)O [WAC] (H-Trp-Ala-Cys-OH),3.55
3,N[C@@H](Cc1c[nH]c2ccccc12)C(=O)N1CCC[C@H]1C(=O)N[C@@H](CC(=O)O)C(=O)O [WPD] (H-Trp-Pro-Asp-OH),3.32
4,NC(=O)C[C@H](NC(=O)[C@@H]1CCCN1C(=O)[C@@H](N)Cc1c[nH]c2ccccc12)C(=O)O [WPN] (H-Trp-Pro-Asn-OH),3.89
5,CC(C)C[C@H](NC(=O)[C@H](C)NC(=O)[C@@H](N)Cc1c[nH]c2ccccc12)C(=O)O [WAL] (H-Trp-Ala-Leu-OH),3.58
6,CSCC[C@H](NC(=O)[C@@H]1CCCN1C(=O)[C@@H](N)Cc1c[nH]c2ccccc12)C(=O)O [WPM] (H-Trp-Pro-Met-OH),3.66
7,N=C(N)NCCC[C@H](NC(=O)[C@@H](N)Cc1c[nH]c2ccccc12)C(=O)N[C@@H](Cc1c[nH]cn1)C(=O)O [WRH] (H-Trp-Arg-His-OH),3.56
8,N=C(N)NCCC[C@H](NC(=O)[C@@H](N)Cc1c[nH]c2ccccc12)C(=O)N[C@@H](Cc1c[nH]c2ccccc12)C(=O)O [WRW] (H-Trp-Arg-Trp-OH),3.22
9,N[C@@H](Cc1c[nH]c2ccccc12)C(=O)N1CCC[C@H]1C(=O)NCC(=O)O [WPG] (H-Trp-Pro-Gly-OH),3.87
10,N=C(N)NCCC[C@H](NC(=O)[C@@H](N)Cc1c[nH]c2ccccc12)C(=O)N[C@@H](CC(=O)O)C(=O)O [WRD] (H-Trp-Arg-Asp-OH),3.69
11,C[C@H](NC(=O)[C@@H](N)Cc1c[nH]c2ccccc12)C(=O)N1CCC[C@H]1C(=O)O [WAP] (H-Trp-Ala-Pro-OH),3.36
12,CC(C)[C@H](NC(=O)[C@@H](N)Cc1c[nH]c2ccccc12)C(=O)N1CCC[C@H]1C(=O)O [WVP] (H-Trp-Val-Pro-OH),3.40
13,C[C@H](NC(=O)[C@@H](N)Cc1c[nH]c2ccccc12)C(=O)N[C@@H](Cc1ccc(O)cc1)C(=O)O [WAY] (H-Trp-Ala-Tyr-OH),3.93
14,CC(C)[C@H](NC(=O)[C@@H](N)Cc1c[nH]c2ccccc12)C(=O)N[C@@H](Cc1ccccc1)C(=O)O [WVF] (H-Trp-Val-Phe-OH),3.73
15,CC[C@H](C)[C@H](NC(=O)[C@H](C)NC(=O)[C@@H](N)Cc1c[nH]c2ccccc12)C(=O)O [WAI] (H-Trp-Ala-Ile-OH),3.70
16,N=C(N)NCCC[C@H](NC(=O)[C@@H](N)Cc1c[nH]c2ccccc12)C(=O)N[C@@H](CC(N)=O)C(=O)O [WRN] (H-Trp-Arg-Asn-OH),3.50
17,N[C@@H](Cc1c[nH]c2ccccc12)C(=O)N1CCC[C@H]1C(=O)N[C@@H](Cc1c[nH]cn1)C(=O)O [WPH] (H-Trp-Pro-His-OH),3.50
18,CC(C)[C@H](NC(=O)[C@@H](N)Cc1c[nH]c2ccccc12)C(=O)N[C@@H](CCCCN)C(=O)O [WVK] (H-Trp-Val-Lys-OH),3.48
19,N[C@@H](Cc1c[nH]c2ccccc12)C(=O)N1CCC[C@H]1C(=O)N[C@@H](CO)C(=O)O [WPS] (H-Trp-Pro-Ser-OH),3.23
20,C[C@H](NC(=O)[C@@H](N)Cc1c[nH]c2ccccc12)C(=O)N[C@@H](Cc1c[nH]c2ccccc12)C(=O)O [WAW] (H-Trp-Ala-Trp-OH),3.98
21,C[C@H](NC(=O)[C@@H](N)Cc1c[nH]c2ccccc12)C(=O)N[C@@H](CCCNC(=N)N)C(=O)O [WAR] (H-Trp-Ala-Arg-OH),3.18

row,Compound,pIC50
1,CSCC[C@H](NC(=O)[C@H](C)NC(=O)[C@@H](N)Cc1c[nH]c2ccccc12)C(=O)O [WAM] (H-Trp-Ala-Met-OH),3.48
2,NC(=O)CC[C@H](NC(=O)[C@@H]1CCCN1C(=O)[C@@H](N)Cc1c[nH]c2ccccc12)C(=O)O [WPQ] (H-Trp-Pro-Gln-OH),3.71
3,C[C@H](NC(=O)[C@H](C)NC(=O)[C@@H](N)Cc1c[nH]c2ccccc12)C(=O)O [WAA] (H-Trp-Ala-Ala-OH),3.56
4,CSCC[C@H](NC(=O)[C@H](CCCNC(=N)N)NC(=O)[C@@H](N)Cc1c[nH]c2ccccc12)C(=O)O [WRM] (H-Trp-Arg-Met-OH),3.05
5,CC(C)[C@H](NC(=O)[C@@H](N)Cc1c[nH]c2ccccc12)C(=O)N[C@@H](CC(N)=O)C(=O)O [WVN] (H-Trp-Val-Asn-OH),3.43
6,N=C(N)NCCC[C@H](NC(=O)[C@@H](N)Cc1c[nH]c2ccccc12)C(=O)N[C@@H](Cc1ccc(O)cc1)C(=O)O [WRY] (H-Trp-Arg-Tyr-OH),3.53
7,C[C@H](NC(=O)[C@@H](N)Cc1c[nH]c2ccccc12)C(=O)N[C@@H](Cc1ccccc1)C(=O)O [WAF] (H-Trp-Ala-Phe-OH),3.81
8,C[C@H](NC(=O)[C@@H](N)Cc1c[nH]c2ccccc12)C(=O)N[C@@H](CC(N)=O)C(=O)O [WAN] (H-Trp-Ala-Asn-OH),3.52
9,C[C@H](NC(=O)[C@@H](N)Cc1c[nH]c2ccccc12)C(=O)N[C@@H](CCC(N)=O)C(=O)O [WAQ] (H-Trp-Ala-Gln-OH),3.54
10,N=C(N)NCCC[C@H](NC(=O)[C@@H](N)Cc1c[nH]c2ccccc12)C(=O)N[C@@H](CS)C(=O)O [WRC] (H-Trp-Arg-Cys-OH),3.68
11,N[C@@H](Cc1c[nH]c2ccccc12)C(=O)N1CCC[C@H]1C(=O)N[C@@H](Cc1ccc(O)cc1)C(=O)O [WPY] (H-Trp-Pro-Tyr-OH),3.52
12,CC[C@H](C)[C@H](N)C(=O)N1CCC[C@H]1C(=O)N[C@H](C(=O)N1CCC[C@H]1C(=O)N[C@H](C(=O)O)[C@@H](C)CC)[C@@H](C)CC [IPIPI] (H-IPIPI-OH),4.32
13,C[C@H](NC(=O)[C@@H](N)Cc1c[nH]c2ccccc12)C(=O)N[C@@H](CC(=O)O)C(=O)O [WAD] (H-Trp-Ala-Asp-OH),3.36
14,CC(C)[C@H](NC(=O)[C@@H]1CCCN1C(=O)[C@@H](N)Cc1c[nH]c2ccccc12)C(=O)O [WPV] (H-Trp-Pro-Val-OH),3.29
15,CC(C)C[C@H](NC(=O)[C@H](CCCNC(=N)N)NC(=O)[C@@H](N)Cc1c[nH]c2ccccc12)C(=O)O [WRL] (H-Trp-Arg-Leu-OH),3.82
16,CC[C@H](C)[C@H](NC(=O)[C@H](CCCNC(=N)N)NC(=O)[C@@H](N)Cc1c[nH]c2ccccc12)C(=O)O [WRI] (H-Trp-Arg-Ile-OH),3.48
17,N[C@@H](Cc1c[nH]c2ccccc12)C(=O)N1CCC[C@H]1C(=O)N[C@@H](CS)C(=O)O [WPC] (H-Trp-Pro-Cys-OH),3.13
18,N=C(N)NCCC[C@H](NC(=O)[C@@H](N)Cc1c[nH]c2ccccc12)C(=O)N[C@@H](CO)C(=O)O [WRS] (H-Trp-Arg-Ser-OH),3.58
19,CC(C)[C@H](N)C(=O)N1CCC[C@H]1C(=O)N[C@H](C(=O)N1CCC[C@H]1C(=O)N[C@@H](Cc1c[nH]cn1)C(=O)O)C(C)C [VPVPH] (H-VPVPH-OH),4.29
